Experimental data reported in US20170008888A1 (KYORIN PHARMACEUTICAL CO., LTD., priority 2014, published 2017).

What was measured:
[1] = system: human PBMCs; assay: Human PBMC TNF-α response to endotoxin (ELISA); format: cell-based; conditions: 0.1 μg/ml LPS 16 h, read-out: EC50 for the inhibition of the human PBMC TNF-α response to endotoxin, ave. ± S.D.
Method: Human PBMCs (Astarte Biologics, Redmond, Wash.) were seeded at 2e6 cells/ml in RPMI 1640 containing 10% (v/v) charcoal-dextran treated, heat inactivated FBS (Omega Scientific, Tarzana, Calif.), 0.05 mM 2-Mercaptoethanol (Sigma-Aldrich, St. Louis, Mo.), and 1×Pen/Strep Amphotericin B (Lonza, Allendale, N.J.). Cells were pre-treated with test compounds (10 μM down by ⅕ in a 4-point serial dilution series) for 1 h at 37° C. in a humidified atmosphere at 5% CO2. Cells were then stimulated with 0.1 μg/ml lipopolysaccharide (LPS) from E. coli 0111:B4 (EMD Millipore, Billerica, Mass.) for 16 h at 37° C. in a humidified atmosphere at 5% CO2. Supernatant was collected and a 25-fold dilution was analyzed for TNF-α concentration using an ELISA kit from Life Technologies (Grand Island, N.Y.) according to the manufacturer's instructions. Absorbance at 450 nm was read using the Synergy 2 multi-detection microplate reader (BioTek Instruments, Winooski, Vt.).

[2] = system: AMPKa1 or AMPKa2; assay: Probe-based (AX9989) kinase profiling in Jurkat lysate: AMPKa1 or AMPKa2; format: binding
Method: (§1) In this example, potency of the compounds as ERK5 inhibitors was assessed, and the compounds were screened for activity against several kinases in Jurkat cells.
(§2) Jurkat cell pellets were resuspended in four volumes of lysis buffer (50 mM HEPES pH 7.5, 150 mM NaCl, 0.1% Triton-X-100, 1% v/v phosphatase, inhibitor cocktail II [EMD/Calbiochem, #524625]), sonicated using a tip, sonicator, and Dounce homogenized. Lysate was cleared by centrifugation, at 16,000 g for 15 min., was gel filtered (BioRad 10DG) and MnCl2 was then added to a final concentration of 20 mM before treatment with the test compound and probe labeling. […] All compound treatments were performed at room temperature.
(§3) Acyl phosphate ATP probe (AX9989) labeling reactions were performed at room temperature with a final probe concentration of 5 μM after a 15 min pre-incubation of lysate with a test compound. All reactions were performed in duplicate, using 445 μl/sample at 5 mg/ml. Probe-labeled lysates were denatured and reduced (6 M urea, 10 mM DTT, 65° C., 15 min), alkylated (40 mM iodoacetamide, 37° C., 30 min, and gel filtered (Sephadex G25) into 10 mM ammonium bicarbonate, 2 M urea, 5 mM methionine. The desalted protein mixture was digested with trypsin (0.015 mg/ml) for 1 hr at 37° C., and desthiobiotinylated peptides were captured using a […] high-capacity streptavidin resin (Thermo Scientific). Captured peptides were then washed extensively using 150 μl/wash with three different wash buffers: (A) 3 times with 1% triton, 0.5% tergitol, 1 mM EDTA in PBS; (B) 18 times with PBS; and (C) 8 times with HPLC grade water. Peptides were eluted from the streptavidin beads using two 35-μL washes of a 50% CH3CN/water mixture containing 0.1% TFA at room temperature.
(§4) Kinase active site peptides were identified and quantified using LC/MS. Percent inhibition was calculated as the normalized decrease in the ESI-MS fragment intensities of probe-labeled peptides in samples incubated with the test compound compared to those without.

[3] = target: T1, AurA (Homo sapiens, UniProt O14965); assay: Probe-based (AX9989) kinase profiling in Jurkat lysate: AurA; format: binding
T1 construct: screened for activity against several kinases in Jurkat cells; endogenous in cells; host or cells: Jurkat cell lysate
T1 sequence (O14965 1-403): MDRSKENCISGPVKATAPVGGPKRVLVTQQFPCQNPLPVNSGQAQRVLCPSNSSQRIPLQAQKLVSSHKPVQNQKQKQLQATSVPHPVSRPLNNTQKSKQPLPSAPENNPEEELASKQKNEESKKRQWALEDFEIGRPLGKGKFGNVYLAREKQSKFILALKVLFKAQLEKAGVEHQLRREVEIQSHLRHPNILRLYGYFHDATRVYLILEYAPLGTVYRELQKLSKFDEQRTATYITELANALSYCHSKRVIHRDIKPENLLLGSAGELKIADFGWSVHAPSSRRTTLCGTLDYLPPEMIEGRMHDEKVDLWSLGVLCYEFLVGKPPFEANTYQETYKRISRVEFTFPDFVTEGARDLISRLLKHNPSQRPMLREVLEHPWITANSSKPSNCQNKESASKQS
Method: as §1, §2, §3, §4

[4] = system: AurB or AurC; assay: Probe-based (AX9989) kinase profiling in Jurkat lysate: AurB or AurC; format: binding
Method: as §1, §2, §3, §4

[5] = target: T2, ERK5 (Homo sapiens, UniProt Q13164); assay: Probe-based (AX9989 acyl phosphate ATP probe) kinase profiling in Jurkat lysate: ERK5; format: binding; conditions: for IC50: Jurkat lysate; for inhibition at 1 µM: screening concentration 1.0 μM, read-out: Kinase inhibition % at indicated screening concentration: ERK5
T2 construct: screened for activity against several kinases in Jurkat cells; endogenous in cells; host or cells: Jurkat cell lysate
Method: as §1, §2, §3, §4
ERK5 IC50 values were calculated from the percent inhibition and the screening concentration.

[6] = target: T3, ACK (Homo sapiens, UniProt Q07912); assay: Probe-based (AX9989) kinase profiling in Jurkat lysate: ACK; format: binding
T3 construct: screened for activity against several kinases in Jurkat cells; endogenous in cells; host or cells: Jurkat cell lysate
Method: as §1, §2, §3, §4

[7] = target: T4, JAK1 (Homo sapiens, UniProt P23458); assay: Probe-based (AX9989) kinase profiling in Jurkat lysate: JAK1; format: binding
T4 construct: screened for activity against several kinases in Jurkat cells; endogenous in cells; host or cells: Jurkat cell lysate
Method: as §1, §2, §3, §4

[8] = target: T5, TAO2 (Homo sapiens, UniProt Q9UL54); assay: Probe-based (AX9989) kinase profiling in Jurkat lysate: TAO2; format: binding
T5 construct: screened for activity against several kinases in Jurkat cells; endogenous in cells; host or cells: Jurkat cell lysate
T5 sequence (Q9UL54 1-1235): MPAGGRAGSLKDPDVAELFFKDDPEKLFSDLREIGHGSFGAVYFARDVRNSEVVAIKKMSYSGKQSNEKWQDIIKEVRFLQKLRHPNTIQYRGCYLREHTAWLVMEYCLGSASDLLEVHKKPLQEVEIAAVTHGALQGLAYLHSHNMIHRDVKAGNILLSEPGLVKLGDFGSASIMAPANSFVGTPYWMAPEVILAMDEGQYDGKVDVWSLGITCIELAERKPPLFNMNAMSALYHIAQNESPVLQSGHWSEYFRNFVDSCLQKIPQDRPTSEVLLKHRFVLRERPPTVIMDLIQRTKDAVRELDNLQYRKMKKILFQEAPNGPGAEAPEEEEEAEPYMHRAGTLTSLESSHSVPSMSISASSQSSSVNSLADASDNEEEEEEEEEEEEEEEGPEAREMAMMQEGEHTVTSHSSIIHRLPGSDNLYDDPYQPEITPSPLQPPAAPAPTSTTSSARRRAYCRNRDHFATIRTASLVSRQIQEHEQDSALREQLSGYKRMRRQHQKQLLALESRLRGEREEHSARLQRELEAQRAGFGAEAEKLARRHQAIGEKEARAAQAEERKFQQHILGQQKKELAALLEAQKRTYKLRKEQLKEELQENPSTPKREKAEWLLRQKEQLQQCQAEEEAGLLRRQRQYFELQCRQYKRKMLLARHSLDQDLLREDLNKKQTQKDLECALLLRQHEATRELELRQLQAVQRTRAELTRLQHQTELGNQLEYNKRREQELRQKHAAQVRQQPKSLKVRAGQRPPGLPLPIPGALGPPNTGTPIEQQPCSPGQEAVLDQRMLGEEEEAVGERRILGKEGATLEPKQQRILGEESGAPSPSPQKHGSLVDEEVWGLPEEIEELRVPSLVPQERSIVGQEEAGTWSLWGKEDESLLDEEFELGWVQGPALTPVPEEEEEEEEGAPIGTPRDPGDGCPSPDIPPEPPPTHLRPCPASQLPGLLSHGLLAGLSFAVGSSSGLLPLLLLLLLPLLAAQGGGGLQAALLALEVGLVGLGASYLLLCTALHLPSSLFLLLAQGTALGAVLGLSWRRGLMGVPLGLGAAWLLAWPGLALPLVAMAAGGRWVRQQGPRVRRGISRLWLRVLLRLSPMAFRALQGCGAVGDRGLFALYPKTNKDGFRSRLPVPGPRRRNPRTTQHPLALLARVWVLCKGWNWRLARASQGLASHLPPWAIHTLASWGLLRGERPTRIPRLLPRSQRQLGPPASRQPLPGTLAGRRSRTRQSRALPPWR
Method: as §1, §2, §3, §4

[9] = system: ABL or ARG; assay: Probe-based (AX9989) kinase profiling in Jurkat lysate: ABL or ARG; format: binding
Method: as §1, §2, §3, §4

[10] = calculated from percent inhibition of AX9989 labeling and the screening concentration

T2 sequence (Q13164 whole entry): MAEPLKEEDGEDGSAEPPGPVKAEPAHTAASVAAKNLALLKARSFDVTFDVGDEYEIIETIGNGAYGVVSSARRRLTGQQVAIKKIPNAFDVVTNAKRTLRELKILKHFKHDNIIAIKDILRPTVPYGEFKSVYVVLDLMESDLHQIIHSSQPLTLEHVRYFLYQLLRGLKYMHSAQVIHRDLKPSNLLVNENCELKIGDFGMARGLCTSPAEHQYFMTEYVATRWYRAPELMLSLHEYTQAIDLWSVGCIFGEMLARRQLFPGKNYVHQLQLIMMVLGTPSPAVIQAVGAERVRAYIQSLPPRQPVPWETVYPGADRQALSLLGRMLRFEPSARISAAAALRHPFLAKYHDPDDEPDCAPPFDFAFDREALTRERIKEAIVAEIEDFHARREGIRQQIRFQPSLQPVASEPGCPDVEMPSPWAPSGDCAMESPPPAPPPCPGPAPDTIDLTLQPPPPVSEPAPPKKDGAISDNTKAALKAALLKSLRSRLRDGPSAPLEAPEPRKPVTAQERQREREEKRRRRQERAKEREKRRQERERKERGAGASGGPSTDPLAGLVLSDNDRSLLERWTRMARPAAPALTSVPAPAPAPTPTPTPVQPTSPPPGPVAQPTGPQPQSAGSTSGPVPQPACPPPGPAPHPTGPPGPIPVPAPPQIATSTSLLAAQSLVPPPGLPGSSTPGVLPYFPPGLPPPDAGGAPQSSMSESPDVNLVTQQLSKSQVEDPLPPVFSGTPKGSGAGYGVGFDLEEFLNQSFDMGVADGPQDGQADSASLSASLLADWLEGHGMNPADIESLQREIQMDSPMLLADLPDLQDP
T3 sequence (Q07912 whole entry): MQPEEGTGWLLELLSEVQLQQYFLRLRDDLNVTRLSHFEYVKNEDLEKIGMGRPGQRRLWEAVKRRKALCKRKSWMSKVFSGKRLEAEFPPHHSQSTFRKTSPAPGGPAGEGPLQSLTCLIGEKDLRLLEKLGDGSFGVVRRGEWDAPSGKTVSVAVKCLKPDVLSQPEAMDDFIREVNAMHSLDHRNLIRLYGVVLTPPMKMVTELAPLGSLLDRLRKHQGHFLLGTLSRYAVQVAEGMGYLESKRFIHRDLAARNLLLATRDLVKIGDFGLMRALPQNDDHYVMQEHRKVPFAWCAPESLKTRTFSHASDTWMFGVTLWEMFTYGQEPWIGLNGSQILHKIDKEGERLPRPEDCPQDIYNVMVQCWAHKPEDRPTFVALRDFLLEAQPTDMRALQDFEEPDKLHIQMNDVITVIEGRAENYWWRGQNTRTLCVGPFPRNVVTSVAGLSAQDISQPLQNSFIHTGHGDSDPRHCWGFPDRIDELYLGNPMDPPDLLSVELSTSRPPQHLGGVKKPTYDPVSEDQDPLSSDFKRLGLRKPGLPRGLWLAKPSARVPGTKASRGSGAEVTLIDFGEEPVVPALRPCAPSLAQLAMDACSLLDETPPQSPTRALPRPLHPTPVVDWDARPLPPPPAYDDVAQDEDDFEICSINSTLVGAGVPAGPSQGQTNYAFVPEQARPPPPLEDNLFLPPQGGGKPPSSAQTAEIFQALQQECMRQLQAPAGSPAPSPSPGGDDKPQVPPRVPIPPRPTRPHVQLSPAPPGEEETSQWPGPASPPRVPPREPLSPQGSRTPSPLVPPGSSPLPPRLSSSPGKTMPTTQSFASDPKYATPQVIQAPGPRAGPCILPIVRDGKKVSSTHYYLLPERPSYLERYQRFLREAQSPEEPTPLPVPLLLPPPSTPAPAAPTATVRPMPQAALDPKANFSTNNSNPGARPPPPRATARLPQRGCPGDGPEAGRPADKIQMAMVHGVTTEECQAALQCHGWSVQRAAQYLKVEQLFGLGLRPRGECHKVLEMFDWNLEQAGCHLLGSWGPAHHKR
T4 sequence (P23458 whole entry): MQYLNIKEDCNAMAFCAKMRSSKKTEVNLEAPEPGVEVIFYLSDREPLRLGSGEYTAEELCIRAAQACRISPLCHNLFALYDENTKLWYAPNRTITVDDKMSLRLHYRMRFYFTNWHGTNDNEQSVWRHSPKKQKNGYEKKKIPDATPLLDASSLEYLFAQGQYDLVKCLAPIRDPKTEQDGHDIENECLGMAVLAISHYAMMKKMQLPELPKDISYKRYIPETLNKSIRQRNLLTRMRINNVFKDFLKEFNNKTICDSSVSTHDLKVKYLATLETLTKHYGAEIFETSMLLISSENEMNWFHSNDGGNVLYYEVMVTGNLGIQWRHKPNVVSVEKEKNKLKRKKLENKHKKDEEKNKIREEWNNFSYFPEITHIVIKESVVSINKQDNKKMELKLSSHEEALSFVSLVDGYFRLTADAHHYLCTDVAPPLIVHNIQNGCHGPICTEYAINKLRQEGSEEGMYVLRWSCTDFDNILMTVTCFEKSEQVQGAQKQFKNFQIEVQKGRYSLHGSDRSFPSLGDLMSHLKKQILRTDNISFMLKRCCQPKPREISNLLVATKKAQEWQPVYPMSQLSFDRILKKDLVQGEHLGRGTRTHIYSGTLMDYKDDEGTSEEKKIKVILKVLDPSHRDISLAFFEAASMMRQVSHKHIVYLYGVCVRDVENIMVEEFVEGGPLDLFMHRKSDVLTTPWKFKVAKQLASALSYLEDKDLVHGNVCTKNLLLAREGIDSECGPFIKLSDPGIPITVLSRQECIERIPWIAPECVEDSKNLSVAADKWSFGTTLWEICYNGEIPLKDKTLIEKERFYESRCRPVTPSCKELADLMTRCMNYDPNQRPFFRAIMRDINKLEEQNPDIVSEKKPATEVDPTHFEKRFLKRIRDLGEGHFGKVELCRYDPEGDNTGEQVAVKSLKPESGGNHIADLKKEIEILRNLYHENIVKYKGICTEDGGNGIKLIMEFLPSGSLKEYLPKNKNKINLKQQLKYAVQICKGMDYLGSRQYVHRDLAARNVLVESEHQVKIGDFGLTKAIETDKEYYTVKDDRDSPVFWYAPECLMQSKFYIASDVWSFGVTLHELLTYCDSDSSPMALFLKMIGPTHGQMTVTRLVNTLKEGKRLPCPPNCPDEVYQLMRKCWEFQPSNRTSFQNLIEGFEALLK

Row | Structure (SMILES) | EC50 [1] [µM] | also measured
1 | CCOc1cc(C(=O)N[C@H]2CC[C@H](O)CC2)ccc1Nc1cc2c(cn1)N(C)C(=O)c1ccccc1S2 [Compound T90] | > 15 | 
2 | CCN(CC)CCN(C)C(=O)c1ccc(OC)c(Nc2cc3c(cn2)N(C)C(=O)c2ccccc2N3C)c1 [Compound 118] | 3.32 | 
3 | CN1C(=O)C2CCCCC2N(C)c2cc(NC3CCC(N)CC3)ncc21 (centres unmarked) [Compound 97] |  | Kinase inhibition % at indicated screening concentration: AMPKa1 or AMPKa2 ([2]; screening concentration 1.0 μM): E (E is ≦35%); inhibition at 1 µM ([3]; screening concentration 1.0 μM, read-out: Kinase inhibition % at indicated screening concentration: AurA): ≤ 35%; Kinase inhibition % at indicated screening concentration: AurB or AurC ([4]; screening concentration 1.0 μM): E (E is ≦35%); IC50 [5, 10]: > 0.5 µM; inhibition at 1 µM [5]: ≤ 35%; inhibition at 1 µM ([6]; screening concentration 1.0 μM, read-out: Kinase inhibition % at indicated screening concentration: ACK): ≤ 35%; inhibition at 1 µM ([7]; screening concentration 1.0 μM, read-out: Kinase inhibition % at indicated screening concentration: JAK1): ≤ 35%; inhibition at 1 µM ([8]; screening concentration 1.0 μM, read-out: Kinase inhibition % at indicated screening concentration: TAO2): ≤ 35%; Kinase inhibition % at indicated screening concentration: ABL or ARG ([9]; screening concentration 1.0 μM): E (E is ≦35%)
4 | CCOc1cc(C(=O)N2CC[C@@H](NC3CCN(C)CC3)C2)ccc1Nc1cc2c(cn1)N(C)C(=O)c1ccccc1N2C [Compound T60] | 0.95 | 
5 | CCOc1cc(C(=O)N2CCC(N3CCCC3)CC2)ccc1Nc1cc2c(cn1)N(C)S(=O)(=O)c1ccccc1N2C [Compound T2] |  | AMPKa1 or AMPKa2 Inhibition % at indicated screening concentration ([2]; screening concentration 10 μM): E (E is ≦35%); inhibition at 10 µM ([3]; screening concentration 10 μM, read-out: AurA Inhibition % at indicated screening concentration): ≤ 35%; AurB or AurC Inhibition % at indicated screening concentration ([4]; screening concentration 10 μM): E (E is ≦35%); IC50 ([5]; calculated from percent inhibition and screening concentration, AX9989 probe): > 0.5 µM; inhibition at 10 µM ([5]; screening concentration 10 μM, read-out: ERK5 Inhibition % at indicated screening concentration): 35 to 50%; inhibition at 10 µM ([6]; screening concentration 10 μM, read-out: ACK Inhibition % at indicated screening concentration): ≤ 35%; inhibition at 10 µM ([7]; screening concentration 10 μM, read-out: JAK1 Inhibition % at indicated screening concentration): ≤ 35%; inhibition at 10 µM ([8]; screening concentration 10 μM, read-out: TAO2 Inhibition % at indicated screening concentration): ≤ 35%; ABL or ARG Inhibition % at indicated screening concentration ([9]; screening concentration 10 μM): E (E is ≦35%)
6 | CN1C(=O)c2ccccc2N(C)c2cc(NC3CCCCC3O)ncc21 (centres unmarked) [Compound T108] | 3.01 | 
7 | CCO[C@@H]1CCCC[C@H]1Nc1cc2c(cn1)N(C)C(=O)c1ccccc1N2C [Compound T112] | 2.36 | 
8 | CN1C(=O)c2ccccc2N(C)c2cc(N[C@H]3CC[C@@H](O)C3)ncc21 [Compound T134] | 3.68 | 
9 | CN1C(=O)c2ccccc2N(C)c2cc(N[C@H]3CC[C@H](N)C3)ncc21 [Compound T133] | 9.84 | 
10 | Cc1cccc2c1N(C)c1cc(N[C@H]3CC[C@H](O)CC3)ncc1N(C)C2=O [Compound T121] | 2.99 | 
11 | CN1C(=O)c2ccccc2N(C)c2cc(NC3CCN(S(=O)(=O)CCN4CCCC4)CC3)ncc21 [Compound T130] | 2.46 | 
12 | CN1C(=O)c2ccccc2N(C)c2cc(N[C@@H]3CC[C@@H](O)C3)ncc21 [Compound T132] | 3.28 | 
13 | Cc1ccc(Nc2cc3c(cn2)N(C)C(=O)c2ccccc2N3C)c(C)c1 [Compound 3] | 4.23 | IC50 [5, 10]: > 0.5 µM; inhibition at 1 µM [5]: 35 to 50%
14 | CCOc1cc(C(=O)N2CCN(C3CCN(C)CC3)CC2)ccc1Nc1cc2c(cn1)N(C)C(=O)c1ccccc1S2(=O)=O [Compound T101] | > 15 | 
15 | CCOc1cc(C(=O)N(CCO)CCO)ccc1Nc1cc2c(cn1)N(C)C(=O)c1ccccc1N2C [Compound 121] | 0.95 | 
16 | CCOc1cc(C(=O)N[C@H]2CC[C@H](O)CC2)ccc1Nc1cc2c(cn1)N(C)C(=O)c1ccccc1S2(=O)=O [Compound T91] | > 15 | 
17 | CCN(CC)CCN(C)C(=O)c1cccc(Nc2cc3c(cn2)N(C)C(=O)c2ccccc2N3C)c1OC [Compound 119] | 3.96 | 
18 | CN1C(=O)c2ccccc2N(C)c2cc(N[C@@H]3CCCCC3O)ncc21 (some centres unmarked) [Compound T109] | 2.16 | 
19 | CN1C(=O)c2ccccc2N(C)c2cc(N[C@H]3C[C@@H](O)C3)ncc21 [Compound T131] | 6.06 | 
20 | CCOc1cc(C(=O)N(C)C)ccc1Nc1cc2c(cn1)N(C)C(=O)c1ccccc1N2C [Compound 117] | 1.49 | 
21 | CN1C(=O)c2ccccc2N(C)c2cc(N[C@H]3C[C@H](N)C3)ncc21 [Compound T135] | 9.2 | 
22 | CN1C(=O)c2ccccc2N(C)c2cc(N[C@@H]3CCC[C@H](O)C3)ncc21 [Compound T111] | 1.92 | 
23 | CN1C(=O)c2ccccc2N(C)c2cc(N[C@H]3CC[C@@](C)(O)CC3)ncc21 [Compound T123] | 2.1 | 
